Test results published in BindingDB's records for doi:10.1016/S0960-894X(97)00246-1 (1997).
pIC50: −log10 of the molar value.

Assays:
[1] = target: Group IIA secretory phospholipase A2 (Homo sapiens); test: Compound was measured for the inhibitory activity against Secretory phospholipase A 2 (s-PLA2)
[2] = target: Group IIA secretory phospholipase A2 (Homo sapiens); test: Compound was measured for the inhibitory activity against secretory-phospholipase A2 (s-PLA2)

CCCCCCCOc1ccc(C(=O)O)cc1CC(=O)C(F)(F)F [4-Heptyloxy-3-(3,3,3-trifluoro-2-oxo-propyl)-benzoic acid]
pIC50 [1]: 5.77

O=C(O)c1ccc2cccc(C(=O)C(F)(F)F)c2c1 [8-(2,2,2-Trifluoro-acetyl)-naphthalene-2-carboxylic acid]
pIC50 [1]: 5.62

CCCCCCCCCCCCCCCCCCOP(=O)(O)c1cccc2ccc(C(=O)O)cc12 [8-(Hydroxy-octadecyloxy-phosphoryl)-naphthalene-2-carboxylic acid]
pIC50 [2]: 5.41

CCCCCCCCOP(=O)(O)c1cccc2ccc(C(=O)O)cc12 [8-(Hydroxy-octyloxy-phosphoryl)-naphthalene-2-carboxylic acid]
pIC50 [1]: < 3.70

CCCCCCCCCCOP(=O)(O)c1cc(OCc2ccccc2)ccc1/C=C/C(=O)O [(E)-3-[4-Benzyloxy-2-(decyloxy-hydroxy-phosphoryl)-phenyl]-acrylic acid]
pIC50 [1]: 5.35
